Marks after values point to notes of the source that are not given here.
How the values were obtained:
mouse oocytes [1] = experiment: In vitro fertilization of mouse oocytes after in vitro maturation with or without Hx arrest and FF-MAS induction (Example 4); format: cell-based, mice (C57Bl/6J×DBA/2J F1-hybrids)
Description: Aim: to optimize the culture conditions for mammalian oocytes by arresting the spontaneous maturation for 4 hours before initiating oocyte maturation by the means of adding a adequate concentration of FF-MAS.
Óocytes were obtained from immature (21-24 day old) female mice (C57Bl/6J×DBA/2J F1-hybrids, M&B, Denmark) weighing 13-16 grams, which were kept under controlled lighting and temperature. […] The ovaries were dissected out and the oocytes were isolated in Hx-medium (see below) under a stereomicroscope by manual rupture of the follicles using a pair of 27 gauge needles. Spherical oocytes displaying an intact germinal vesicle (GV) were selected and placed in α-minimum essential medium (α-MEM without ribonucleosides, Gibco BRL, Cat. No. 22561) supplemented with 3 mM hypoxanthine (Sigma Cat. No. H-9377), 8 mg/ml Human Serum Albumin (HSA, State Serum Institute, Denmark), 0.23 mM pyruvate (Sigma, Cat. No. S-8636), 2 mM glutamine (Flow Cat. No. 16-801), 100 IU/ml penicillin and 100 μg/ml streptomycin (Flow, Cat. No. 16-700). This medium was designated Hx-medium. The exact same medium without Hx was designated Hx-free medium
Thus oocytes were cultured in 4-well multidishes (Nunclon, Denmark) in which each well contained 0.4 ml of Hx-medium or medium without Hx (to allow for spontaneous maturation) and 35-45 oocytes.
Different treatment groups:
1. Controls: No inhibition, No FF-MAS
2. MAS: No inhibition and 10 μM FF-MAS
3. Inhibition and then spontaneous maturation: Hx-medium for 4 hours then transfer to Hx-free medium
4. Inhibition and FF-MAS induction: Hx-medium for 4 hours and addition of FF-MAS to Hx-medium
5. Inhibition and removal of inhibition and then subsequently FF-MAS induction: Hx-medium for 4 hours, rinse, transfer to Hx-free medium and addition of FF-MAS.
In vitro fertilization following 16-20 hours maturation.
Endpoints: Fertilization rate and in vitro embryo development.

[2] = system: cumulus enclosed human oocytes; experiment: Maturation of cumulus enclosed human oocytes with FF-MAS; format: cell-based
Description: Although the use of FF-MAS improves the rate of fertility compared to the currently applied methods, it is still desirable to increase this rate even further.

mouse oocytes [3] = settings: 24 hours meiotic arrest with hypoxanthine, then 16-30 hour culture in inhibitor-free medium; cited from earlier work
[4] = Treatment No 4: Hx-medium for 4 hours and addition of FF-MAS to Hx-medium
[5] = Treatment No 5: Hx-medium for 4 hours, rinse, transfer to Hx-free medium and addition of FF-MAS
[6] = Treatment No 3: Hx-medium (3 mM hypoxanthine) for 4 hours then transfer to Hx-free medium, no FF-MAS

Row | SMILES | Oocyte quality evaluated as fertilization rate and embryonic developmental capacity, compared with the other treatments (mouse oocytes [1]; 4th treatment modality: inhibition (Hx-medium) and FF-MAS induction) | Embryo development Rate (8-cell rate at 72 hours) (mouse oocytes [1]; Treatment No 2: no inhibition and 10 μM FF-MAS) | Fertilization Rate (mouse oocytes [1]; Treatment No 2: no inhibition and 10 μM FF-MAS, IVF following 16-20 hours maturation) | Embryo development Rate (8-cell rate at 72 hours) (mouse oocytes [1]; [4]) | Fertilization Rate (mouse oocytes [1]; [4]) | Embryo development Rate (8-cell rate at 72 hours) (mouse oocytes [1]; [5]) | Fertilization Rate (mouse oocytes [1]; [5]) | Effect on nuclear and cytoplasmic maturation [2] | Embryo development Rate (8-cell rate at 72 hours) (mouse oocytes [1]; [6]) | Fertilization Rate (mouse oocytes [1]; [6]) | Arrested oocytes that resumed maturation (mouse oocytes [3])
1 | CC(C)=CCC[C@@H](C)[C@H]1CC=C2C3=C(CC[C@@]21C)[C@@]1(C)CC[C@H](O)C(C)(C)[C@@H]1CC3 [FF-MAS, 4,4-dimethyl-5α-cholesta-8,14,24-triene-3β-ol] | significantly superior to the other treatment alternatives | <10% | <50% | 30%* | 75%* | <10% | <50% | improves not only nuclear but cytoplasmic maturation | – | – | –
2 | O=c1[nH]cnc2nc[nH]c12 [hypoxanthine, Hypoxanthine] | – | – | – | – | – | – | – | – | <10% | <50% | ~100%

Reference: patent US6544166B1, “Treatment of human infertility” (priority 1999, dated 2003)
